Data set [1] deals with Pseudomonas putida strain FERM BP-8101. The conditions noted are these: substrate solution with 20 mM EDTA, 200 mM L-alanine ethyl ester hydrochloride, 400 mM L-glutamine, pH 9.0, 1 hour, 30° C.; 4.9 mM with no EDTA. The source says:
However, the present invention is not limited to these examples.

For data set [2], the system named is proline iminopeptidase of Pseudomonas putida strain FERM BP-8123. Briefly: Effect of inhibitors on L-alanyl-L-glutamine synthesis. Type of data set: biochemical. The note with it: 1 mM inhibitor, 30 minutes, 30° C.
Data set [3] concerns the target proline iminopeptidase of Bacillus coagulans strain EK01 (Heyndrickxia coagulans, UniProt P46541). Described as above. It is filed as biochemical. The conditions noted are these: 1 mM inhibitor, 30 minutes, 30° C.
Data set [4] concerns proline iminopeptidase of Pseudomonas putida strain ATCC 12633. Described as above. The note with it: 1 mM inhibitor, 30 minutes, 30° C. Type of data set: biochemical. The procedure: The effects of inhibitors on acquired proline iminopeptidase were investigated. The enzyme reaction was carried out for 30 minutes at 30° C. with a reaction solution consisting of 0.1 M borate buffer (pH 9.0), 10 mM EDTA, 100 mM L-alanine methyl ester hydrochloride, 150 mM L-glutamine and 1 mM inhibitor, followed by measurement of L-alanyl-L-glutamine synthesis. […] The activity was not affected by any of the inhibitors investigated for Corynebacterium glutamicum strain ATCC 13286.

In data set [5] the test system is Pseudomonas putida strain FERM BP-8101. The data set can be described thus: Dipeptide production from test L-alanine esters / L-amino acids by cell suspension. It is filed as cell-based. The note with it: 20 mM EDTA, pH 9.0, 1 hour, 30° C.; for L-alanyl-L-glutamine produced: test L-alanine ester hydrochloride 200 mM with L-glutamine 400 mM; for L-alanyl dipeptide produced: L-alanine methyl ester hydrochloride 200 mM with test L-amino acid 400 mM.
Procedure: Note that in the examples, quantitative determination of L-alanine, L-alanyl-L-glutamine or L-alanyl-L-asparagine was carried out by a method using high performance liquid chromatography (column: Inertsil ODS-2 (GL Science), eluate: aqueous phosphate solution (pH 2.2, 5.0 mM sodium 1-octane sulfonate/methanol=100/15), flow rate: 1.0 mL/min, detection: 210 nm).

For data set [6], the system named is His-Tag purified peptide-forming enzyme of Corynebacterium glutamicum strain ATCC 13286. The data set can be described thus: Study of substrate specificity using His-Tag purified enzyme. It is filed as biochemical. The note with it: 25° C.; for quantity of L-alanyl dipeptide produced from L-alanine methyl ester and test amino acid: 100 mM L-alanine methyl ester hydrochloride, 150 mM test amino acid; for quantity of L-alanyl dipeptide produced from L-alanine methyl ester and test amino acid / quantity of dipeptide produced from test amino acid methyl ester and L-glutamine: enzyme 0.05 U/ml, pH 9.0, 3 hours; for quantity of dipeptide produced from test amino acid methyl ester and L-glutamine / production of peptide of the corresponding amino acid and L-glutamine (not quantified): 100 mM test amino acid methyl ester, 150 mM L-glutamine; for production of peptide of the corresponding amino acid and L-glutamine (not quantified): 3 hours, no standard preparation. The source says: The synthesis of peptides other than the L-alanyl-L-glutamine by the acquired peptide-forming enzyme was studied using His-Tag purified enzyme. […]

For data set [7], the system named is peptide-forming enzyme purified from Corynebacterium glutamicum strain ATCC 13286. Briefly: Dipeptide production by enzyme purified from Corynebacterium glutamicum. Type of data set: biochemical. The note with it: 100 mM L-alanine methyl ester hydrochloride with 200 mM test L-amino acid, 2 units enzyme, 10 mM EDTA, pH 9.0, 4 hours, 30° C. The method, then: This purified enzyme was then added to borate buffer (pH 9.0) containing EDTA, L-alanine methyl ester hydrochloride and L-glutamine (or L-asparagine), mixed to the total volume of 1 mL (for the final concentrations, the amount of enzyme added was 2 units as alanine amide decomposition activity, EDTA was at 10 mM, L-alanine methyl ester hydrochloride was at 100 mM and L-glutamine (or L-asparagine) was at 200 mM borate buffer at 100 mM), and allowed to react for 4 hours at 30° C.

A short description of data set [8]: Enzyme titer: L-alanine amide decomposition activity. It is filed as biochemical. The note with it: Tris-HCl pH 9.0, 60 minutes, 30° C. The procedure: The specific activity of the purified enzyme was 9.841 U/mg, and the specific activity of the purified peptide-forming enzyme was increased about 246-fold as a result of going through these purification steps. In addition, as a result of applying the molecular weight of the purified enzyme standard to SDS polyacrylamide electrophoresis, a uniform band was detected at the position calculated to represent a molecular weight of 42,000 to 46,000. Measurement of enzyme titer was carried out as described below. 200 μM of Tris-HCl buffer (pH 9.0), 50 μM of L-alanine amide and a suitable amount of enzyme liquid were added and mixed to a final volume 1 mL, and after allowing to react for 60 minutes at 30° C., 4 mL of aqueous phosphoric acid (pH 2.1) was added to stop the reaction. The alanine produced was quantified by high-performance liquid chromatography, and the amount of enzyme that produces 1 μM of L-alanine in 1 minute was defined as 1 unit.

Read-outs that look alike come from different tables or passages of the source. Residues, ends and D or L forms follow the SMILES beside them.

proline iminopeptidase of Bacillus coagulans strain EK01, sequence (P46541 whole entry): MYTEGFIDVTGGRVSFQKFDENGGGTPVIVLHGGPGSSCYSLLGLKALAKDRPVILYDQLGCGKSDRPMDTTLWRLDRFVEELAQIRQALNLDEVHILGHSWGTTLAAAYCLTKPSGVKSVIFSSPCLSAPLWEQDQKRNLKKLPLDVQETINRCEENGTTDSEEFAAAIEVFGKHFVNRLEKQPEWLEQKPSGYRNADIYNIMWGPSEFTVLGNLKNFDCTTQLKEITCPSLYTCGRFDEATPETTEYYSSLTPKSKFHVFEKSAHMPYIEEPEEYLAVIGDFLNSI

`O=C(O)CN(CCN(CC(=O)O)CC(=O)O)CC(=O)O` [EDTA, ethylenediaminetetraacetic acid] returned a L-alanyl-L-glutamine produced in data set [1] of 10.1 mM.
For the molecule `NC(=O)CI` [IAA, iodoacetoamide], the “effect on enzyme activity” value in data set [2], in data set [3] and in data set [4] was “decreased to certain extents” throughout.
In the case of `CCOC(=O)[C@H](C)N.Cl` [L-alanine ethyl ester hydrochloride], in data set [5], the L-alanyl-L-glutamine produced stood at 11.4 mM.
In data set [5], `COC(=O)[C@H](C)N.Cl` [L-alanine methyl ester hydrochloride] registered a L-alanyl-L-glutamine produced of 14.9 mM.
On the same count and under the same terms, then `C[C@H](N)C(=O)OC(C)(C)C.Cl` [L-alanine-tert-butyl ester hydrochloride], with 0.5 mM.
Turning to `C[C@H](N)C(=O)O` [L-alanine], the “quantity of L-alanyl dipeptide produced from L-alanine methyl ester and test amino acid” value (“quantity of L-alanyl dipeptide produced” below) in data set [6] was 10.63 mM.
Turning to `COC(=O)[C@@H](N)CCCNC(=N)N` [L-arginine methyl ester], in data set [6], the “quantity of dipeptide produced from test amino acid methyl ester and L-glutamine” value (from here on “quantity of dipeptide produced”) is recorded as 6.52 mM.
For `N=C(N)NCCC[C@H](N)C(=O)O` [L-arginine], the “quantity of L-alanyl dipeptide produced” value in data set [6] is on record as 24.87 mM.
Take `COC(=O)[C@@H](N)CC(N)=O` [L-asparagine methyl ester]: the “production of peptide of the corresponding amino acid and L-glutamine (not quantified)” value (from here on “production of peptide … (not quantified)”) in data set [6] is on record as “confirmed to be produced”.
Take `NC(=O)C[C@H](N)C(=O)O` [L-asparagine]: the “amount of L-alanyl dipeptide produced” value in data set [7] is 49.8 mM. In addition, the “quantity of L-alanyl dipeptide produced” value in data set [6] was 22.34 mM. Further, the L-alanyl dipeptide produced in data set [5] is on record as 4.8 mM.
As to `COC(=O)C[C@H](N)C(=O)OC` [L-aspartic acid-α,β-dimethyl ester], the “production of peptide … (not quantified)” value in data set [6] is recorded as “confirmed to be produced”.
Consider `COC(=O)[C@@H](N)CC(=O)O` [L-aspartic acid-α-methyl ester], for which the “quantity of dipeptide produced” value in data set [6] was 8.22 mM.
Regarding `COC(=O)C[C@H](N)C(=O)O` [L-aspartic acid-β-methyl ester], the “production of peptide … (not quantified)” value in data set [6] is listed as “confirmed to be produced”.
For `N[C@@H](CCC(=O)O)C(=O)O` [L-glutamate], the “quantity of L-alanyl dipeptide produced” value in data set [6] is on record as 1.11 mM.
Take `COC(=O)CC[C@H](N)C(=O)O` [L-glutamic acid-γ-methyl ester]: the “production of peptide … (not quantified)” value in data set [6] is reported as “confirmed to be produced”.
Consider `COC(=O)[C@@H](N)CCC(N)=O` [L-glutamine methyl ester], for which the “quantity of dipeptide produced” value in data set [6] turned out to be 0.23 mM.
As for `NC(=O)CC[C@H](N)C(=O)O` [L-glutamine], in data set [7], the “amount of L-alanyl dipeptide produced” value was 50.2 mM. For the same molecule, the L-alanyl dipeptide produced in data set [5] was found to be 12.7 mM.
For `N[C@@H](Cc1c[nH]cn1)C(=O)O` [L-histidine], the “quantity of L-alanyl dipeptide produced” value in data set [6] is 23.16 mM.
Consider `CC[C@H](C)[C@H](N)C(=O)N[C@@H](CCC(N)=O)C(=O)O` [L-isoleucyl-L-glutamine] (H-Ile-Gln-OH), for which the “quantity of dipeptide produced” value in data set [6] was determined as 0.59 mM.
As to `COC(=O)[C@@H](N)CC(C)C` [L-leucine methyl ester], the “production of peptide … (not quantified)” value in data set [6] is “confirmed to be produced”.
With `CC(C)C[C@H](N)C(=O)O` [L-leucine], the “quantity of L-alanyl dipeptide produced” value in data set [6] was 13.73 mM.
As for `COC(=O)[C@@H](N)CCCCN` [L-lysine methyl ester], the “production of peptide … (not quantified)” value in data set [6] was “confirmed to be produced”.
For `NCCCC[C@H](N)C(=O)O` [L-lysine], the “quantity of L-alanyl dipeptide produced” value in data set [6] was determined as 7.91 mM.
Turning to `COC(=O)[C@@H](N)CCSC` [L-methionine methyl ester], the “quantity of dipeptide produced” value in data set [6] was 4.31 mM.
Regarding `CSCC[C@H](N)C(=O)O` [L-methionine], in data set [6], the “quantity of L-alanyl dipeptide produced” value was found to be 48.80 mM.
Still for that read-out and setting: the figure for `N[C@@H](Cc1ccccc1)C(=O)O` [L-phenylalanine] is 16.13 mM.
Still for that read-out and setting: the figure for `O=C(O)[C@@H]1CCCN1` [L-proline] is 1.02 mM.
Regarding `COC(=O)[C@@H](N)CO` [L-serine methyl ester], the “quantity of dipeptide produced” value in data set [6] was found to be 40.44 mM.
As to `N[C@@H](CO)C(=O)O` [L-serine], in data set [6], the “quantity of L-alanyl dipeptide produced” value came out at 26.14 mM.
Take `COC(=O)[C@@H](N)[C@@H](C)O` [L-threonine methyl ester]: in data set [6], the “quantity of dipeptide produced” value worked out at 3.85 mM.
Consider `C[C@@H](O)[C@H](N)C(=O)O` [L-threonine], for which, in data set [6], the “quantity of L-alanyl dipeptide produced” value worked out at 24.23 mM.
On the same count and under the same terms, the figure for `N[C@@H](Cc1c[nH]c2ccccc12)C(=O)O` [L-tryptophan] is 15.31 mM.
For `COC(=O)[C@@H](N)Cc1ccc(O)cc1` [L-tyrosine methyl ester], the “quantity of dipeptide produced” value in data set [6] is recorded as 1.24 mM.
As to `N[C@@H](Cc1ccc(O)cc1)C(=O)O` [L-tyrosine], the “quantity of L-alanyl dipeptide produced” value in data set [6] is recorded as 0.96 mM.
Turning to `COC(=O)[C@@H](N)C(C)C` [L-valine methyl ester], the “quantity of dipeptide produced” value in data set [6] was determined as 5.94 mM.
For the molecule `CCN1C(=O)C=CC1=O` [NEM, N-ethylmaleimide], the “effect on enzyme activity” value in data set [2], in data set [3] and in data set [4] was “nearly completely inhibited” each time.
`O=S(=O)(F)Cc1ccccc1` [PMSF, phenyl methyl sulfonyl fluoride]: the “effect on enzyme activity” value in data set [2], in data set [3] and in data set [4] was “did not have an effect” throughout.
With `COC(=O)CN` [glycine methyl ester], the “quantity of dipeptide produced” value in data set [6] was determined as 52.19 mM.
Regarding `NCC(=O)O` [glycine], in data set [6], the “quantity of L-alanyl dipeptide produced” value turned out to be 5.66 mM.
As for “peptide-forming enzyme purified from Corynebacterium glutamicum strain ATCC 13286: native enzyme purified to uniformity; amino acid sequence SEQ ID NO: 5”, the “specific activity (L-alanine amide decomposition)” value in data set [8] stood at 9.841 U/mg.
